# Assay results taken from patent publication US20250249001A1, “METHODS OF TREATING SUBSTANCE USE DISORDER WITH 4-(3-CYANOPHENYL)-6-PYRIDINYLPYRIMIDINE MGLU5 NEGATIVE ALLOSTERIC MODULATORS” (Tempero Bio, Inc., priority 2022, published 2025).
# Columns and labels:
# [1] = test system: Wistar rats, open-field locomotor activity; experiment: Open-field locomotor test for nonspecific behavioral effects; format: in vivo; settings: 3 mg/kg i.p., 1-hr pretreatment
# Description: Locomotor activity: testing for nonspecific behavioral effects. After completion of the Compound 1 dose response curve, potential nonspecific effects of Compound 1 (3 mg/kg) were assessed using the open-field locomotor test. This test evaluates potential effects on motor activity and anxiety-like behavior. Rats were administered Compound 1 (0 or 3 mg/kg, i.p.) in a randomized counterbalanced order. After a 1-hr pretreatment period (matching the pretreatment period used in the drinking study), rats were placed in the open-field apparatus and locomotor activity was computer-monitored for 1-hr. To assess anxiety-like behavior, activity in the center zone of the open field was analyzed.
# Open-field locomotor test for nonspecific behavioral effects. Pharmacological manipulations have the potential to alter rodent behavior by producing nonspecific effects on motor ability, learning and memory, or emotional processing. The open field test is a widely used method for assessing all these potential nonspecific effects in a single test. In this method, rodents are injected with a test compound and placed in an open-field apparatus that records ambulatory behavior in real time via computer analysis of photobeam breaks (FIG. 3A). […] Similarly, Compound 1 (3 mg/kg) had no effect on summary measures of total ambulatory distance (FIG. 3C) or total ambulatory time (FIG. 3D) as compared to vehicle control.
# [2] = test system: operant alcohol self-administration in Wistar rats; experiment: Operant alcohol self-administration (FR-1), acute treatment; format: in vivo; parameters: alcohol reinforced lever press responses: dose or concentration left out as unconfirmed; settings: 1-h pretreatment
# Text: Twelve operant conditioning chambers designed for rats (30.5 cm×24.1 cm×21.0 cm; Med Associates, Georgia, VT) were located within sound-attenuating cubicles in a devoted room to limit extraneous potential impact by extraneous environmental variables. Each cubicle was equipped with an exhaust fan that provided ventilation and masked external sounds. The chambers were electronically interfaced to a Microsoft Windows based computer that was programmed using investigator developed software to control sessions and record number of lever press responses at 100-ms intervals.
# The right wall of each chamber contained a liquid receptacle and a response lever (Med Associates) that was termed the active lever. Lever press responses on the active lever activated a syringe pump (PHM-100, Med Associates) that delivered 0.1 ml of alcohol solution (ethanol 8% v/v+sucrose 2% w/v) into the receptacle over a 1.66-s period. Head entries into the liquid receptacle were recorded when an infrared photo beam was broken. A stimulus light located above the response lever was illuminated during pump activation. Lever presses during reinforcer delivery were recorded but produced no programmed consequence. […] Behavior on this lever serves as a control for motor disruptions and other nonspecific effects of test compounds. […]
# Testing the efficacy of Compound 1 to reduce the reinforcing, or rewarding, effects of alcohol. Following establishment of stable baseline self-administration behavior, effects of pre-session treatment with the novel mGluR5 negative allosteric modulator Compound 1 (0, 0.3, 1, 3, and 10 mg/kg, IP) were evaluated on operant alcohol self-administration behavior (n=12 rats). […] Parameters of operant performance were measured, including total lever press responses, number of headpokes into the liquid receptacle, and rate of operant responding, which is a direct measure of positive reinforcement function. […]
# [3] = Phase 1 multiple ascending dose study, exposure; format: in vivo, healthy subjects; settings: 100 mg/day (50 mg twice per day) oral; study suspended at day 9 after dosage of 6 patients
# Text: Example 5 presents the protocol for a suspended, multiple ascending dose (MAD) study to evaluate the safety, tolerability, and pharmacokinetics (PK) of Compound 1 in healthy subjects. In the following paragraphs, Example 5 is described in the future tense for sake of brevity; the study was suspended at day 9 after dosage of 6 patients. […] Example 6 presents the protocol for a planned, amended Phase 1 MAD study.
# Study Objectives and Endpoints—See Table 12 for Study Objectives and Endpoints. There will be up to 4 dose cohorts, and within each cohort subjects will be randomly assigned to receive either active drug or placebo. Study subjects will be administered active drug or placebo twice daily for 14 days (note: only the AM dose is administered on Day 14).
# Each subject will be randomly assigned to 1 of the following cohorts: Cohort 1: Group 1 (6 subjects): 50 mg of Compound 1 twice daily (bid); Group 2 (2 subjects): placebo (matching Compound 1) bid. Cohort 2: Group 3 (6 subjects): 100 mg of Compound 1 bid; Group 4 (2 subjects): placebo (matching Compound 1) bid. Cohort 3: Group 5 (6 subjects): 150 mg of Compound 1 bid; Group 6 (2 subjects): placebo (matching Compound 1) bid.
smiles,measurement,setting,value
"N#Cc1cc(Cl)cc(-c2cc(-c3ccc(F)cn3)ncn2)c1 [Compound 1, 3-chloro-5-[6-(5-fluoropyridin-2-yl)pyrimidin-4-yl]benzonitrile]",motor activity in the center zone of the open field (anxiety-like behavior),[1],normal avoidance of the center zone
same,total ambulatory distance,[1],no effect
same,total ambulatory time,[1],no effect
same,initial exploration or habituation to the novel open-field environment,[1]; 1-hr test,no effect
same,"EtOH reinforced responses vs vehicle, multiple comparisons",[2]; 10 mg/kg IP,reduced EtOH reinforced responses
same,alcohol reinforced lever press responses,"[2]; IP (so in the source), 15-min test sessions",reduced alcohol reinforced lever press responses in a dose-dependent manner
same,exposure in healthy subjects,[3],greater than expected exposure
